How the values were obtained:
[1] = tested on: DNFB-induced ear inflammation mouse model; assay: DNFB-induced ear inflammation mouse model: cytokine concentrations in ear tissue; format: in vivo, mouse (Balb/c)
Method: In vivo T-cell mediated immune response was examined in a mouse model of CHS using the hapten dinitrofluorobenzene (DNFB) as the induction agent. […] On Days 0 and 1 (sensitization), 20 μL of 0.5% v/v DNFB in acetone:olive oil (4:1) was applied to each hindpaw of 8 week old male mice (Balb/c, Charles River Laboratories; 10 mice per group unless otherwise noted). On Day 5 (elicitation) 10 μL of 0.2% v/v DNFB in acetone: olive oil (4:1) was applied to the dorsal surface of the right ear of each animal; 10 μL of acetone: olive oil (4:1) was applied to the dorsal surface of the left ear as control. Treatments were administered by group as indicated in the table below; on days when DNFB was used, the QD and the morning dose of BID as appropriate were administered 30 minutes-1 hr. prior to DNFB application. […] Approximately 24 hours after elicitation (Day 6), a 7 mm tissue punch from the central portion of both ears was collected and wet weights measured. The primary functional assessment was the difference in wet weights of the right (DNFB) vs. left (vehicle) ears compared to the vehicle treatment (Vehicle1-S) as an indicator of inflammation (Table 17). Ear tissue punches were flash frozen, stored at −70° C. and analyzed for cytokines (see below).
Cytokine concentrations after DNFB induction and treatment were analyzed in the weighed and flash frozen tissues of the right (DNFB) and left (control) 7 mm ear punches. The ear tissues were stored at −70° C. until prepared for analysis as follows. Left or right ear tissues from the same treatment group were pooled and crushed with mortar and pestle under liquid nitrogen. Tissue representing 7-8 ear punches by weight was homogenized in Buffer A (50 mM HEPES pH 7.4, 100 mM NaCl) containing 1 tablet EDTA-free Protease Inhibitor (Thermo Fisher Scientific, Rockford, Ill.) per 10 mL, 1× Phosphatase Inhibitor Cocktail II (AG Scientific, San Diego, Calif.), and 1 mM PMSF (Sigma, St. Louis, Mo.). Homogenization was performed in Lysing Matrix D tubes (MP Biomedicals, Solon, Ohio), using the FastPrep-24 instrument (MP Biomedicals) at a speed setting of 6 for 4 cycles of 30 seconds, with cooling on ice in between cycles. The tubes were then centrifuged at 1,000×g for 10 min at 4° C. Supernatant was collected and briefly sonicated using the Microson probe sonicator at setting 3 (Misonix, Farmingdale, N.Y.) before centrifuging again at 10,000×g for 10 min at 4° C. The supernatant was ultracentrifuged at 100,000×g for 1 h at 4° C. in the Optima Max-E (Beckman Coulter, Indianapolis, Ind.) to separate soluble and membrane protein fractions. The soluble (supernatant) fraction was collected and protein concentrations determined using the Dc protein kit (Bio-Rad, Hercules, Calif.). Soluble ear proteins were analyzed in triplicate for cytokine response at a final protein concentration of 4 mg/ml using the Bio-Plex Pro Mouse Cytokine 23-Plex panel (Bio-Rad) as per manufacturer's protocols. Magnetic beads were read on the Bio-Plex MAGPIX multiplex reader instrument using the accompanying xPONENT 4.2 acquisition software (Bio-Rad Laboratories, Hercules, Calif.). Data were analyzed via the Bio-Plex Manager software v6.1 (Bio-Rad Laboratories). Response was calculated as a percentage of the cytokine concentrations measured in the right (DNFB) ears of vehicle 1 dosed (S regimen, i.e. dosed Day 0-5) mice (Table 18).

BRD2 = biological target: T1, BRD2 (Homo sapiens, UniProt P25440); assay: Bromodomain binding assay: BRD2
T1 construct: read out by qPCR of the phage DNA
Method: T7 phage strains displaying bromodomains were grown in parallel in 24-well blocks in an E. coli host derived from the BL21 strain. E. coli were grown to log-phase and infected with T7 phage from a frozen stock (multiplicity of infection=0.4) and incubated with shaking at 32° C. until lysis (90-150 minutes). The lysates were centrifuged (5,000×g) and filtered (0.2 μm) to remove cell debris. […] The liganded beads were blocked with excess biotin and washed with blocking buffer (SeaBlock (Pierce), 1% BSA, 0.05 Tween 20, 1 mM DTT) to remove unbound ligand and to reduce non-specific phage binding. […] Test compounds (T62 and 46) were prepared as 1000× stocks in 100% DMSO and subsequently diluted 1:10 in monoethylene glycol (MEG) to create stocks at 100× the screening concentration (resulting stock solution is 10% DMSO/90% MEG). The compounds were then diluted directly into the assays such that the final concentration of DMSO and MEG were 0.1% and 0.9%, respectively. All reactions were performed in polystyrene 96-well plates in a final volume of 0.135 ml. […] The bromodomain concentration in the eluates was measured by qPCR. Compounds were assayed for binding activity against a panel of 40 bromodomain-containing proteins.

T1 sequence (P25440 whole entry): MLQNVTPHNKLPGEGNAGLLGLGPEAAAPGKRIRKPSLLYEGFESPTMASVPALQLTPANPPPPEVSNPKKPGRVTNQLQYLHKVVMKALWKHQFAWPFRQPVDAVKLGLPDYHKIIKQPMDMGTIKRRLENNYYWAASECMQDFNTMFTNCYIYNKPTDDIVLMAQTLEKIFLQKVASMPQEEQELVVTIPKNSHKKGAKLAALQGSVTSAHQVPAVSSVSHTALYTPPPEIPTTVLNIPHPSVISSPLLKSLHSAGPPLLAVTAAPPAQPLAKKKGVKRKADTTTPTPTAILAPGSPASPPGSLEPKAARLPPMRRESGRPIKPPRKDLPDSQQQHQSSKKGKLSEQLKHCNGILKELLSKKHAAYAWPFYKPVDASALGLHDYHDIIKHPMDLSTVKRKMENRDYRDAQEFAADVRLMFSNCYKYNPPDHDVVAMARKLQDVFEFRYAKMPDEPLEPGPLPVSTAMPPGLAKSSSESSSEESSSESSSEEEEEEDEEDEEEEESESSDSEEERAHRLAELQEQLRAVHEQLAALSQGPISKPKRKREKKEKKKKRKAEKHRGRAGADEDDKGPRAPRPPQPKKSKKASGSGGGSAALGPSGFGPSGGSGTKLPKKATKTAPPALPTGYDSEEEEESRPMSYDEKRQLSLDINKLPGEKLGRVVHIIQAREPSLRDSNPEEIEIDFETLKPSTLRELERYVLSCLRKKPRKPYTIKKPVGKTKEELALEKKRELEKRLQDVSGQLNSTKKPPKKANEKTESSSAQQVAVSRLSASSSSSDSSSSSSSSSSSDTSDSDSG

`CCOc1cc(C(=O)N2CCC(N3CCCC3)CC2)ccc1Nc1cc2c(cn1)N(C)C(=O)c1ccccc1N2C` [Compound 46, 3-(2-Ethoxy-4-(4-(pyrrolidin-1-yl)piperidine-1-carbonyl)phenylamino)-5,11-dimethyl-5H-benzo[e]pyrido[3,4-b][1,4]diazepin-10(11H)-one] was tested, and the “G-CSF: Mean % Cytokine Concentration in DNFB Treated Right Ears versus Vehicle 1-Dosed (S) Mice” value (from here on “G-CSF: Mean % Cytokine Concentration”) ([1]; 25 mg/kg, regimen E) was 58%, the “GM-CSF: Mean % Cytokine Concentration in DNFB Treated Right Ears versus Vehicle 1-Dosed (S) Mice” value (shortened to “GM-CSF: Mean % Cytokine Concentration”) ([1]; 25 mg/kg, regimen E) was 29% and the “IFN-γ: Mean % Cytokine Concentration in DNFB Treated Right Ears versus Vehicle 1-Dosed (S) Mice” value (“IFN-γ: Mean % Cytokine Concentration” for short) ([1]; 25 mg/kg, regimen E) was 51%. For the same compound, the “IL-1α: Mean % Cytokine Concentration in DNFB Treated Right Ears versus Vehicle 1-Dosed (S) Mice” value (shortened to “IL-1α: Mean % Cytokine Concentration”) ([1]; 25 mg/kg, regimen E) was 128%, the “IL-1β: Mean % Cytokine Concentration in DNFB Treated Right Ears versus Vehicle 1-Dosed (S) Mice” value (“IL-1β: Mean % Cytokine Concentration” below) ([1]; 25 mg/kg, regimen E) was 57% and the “IL-3: Mean % Cytokine Concentration in DNFB Treated Right Ears versus Vehicle 1-Dosed (S) Mice” value (from here on “IL-3: Mean % Cytokine Concentration”) ([1]; 25 mg/kg, regimen E) was 75%. For the same compound, the “IL-5: Mean % Cytokine Concentration in DNFB Treated Right Ears versus Vehicle 1-Dosed (S) Mice” value (from here on “IL-5: Mean % Cytokine Concentration”) ([1]; 25 mg/kg, regimen E) was 63%, the “IL-6: Mean % Cytokine Concentration in DNFB Treated Right Ears versus Vehicle 1-Dosed (S) Mice” value (from here on “IL-6: Mean % Cytokine Concentration”) ([1]; 25 mg/kg, regimen E) was 53% and the “IL-12 (p40): Mean % Cytokine Concentration in DNFB Treated Right Ears versus Vehicle 1-Dosed (S) Mice” value ([1]; 25 mg/kg, regimen E) was 81%. For the same compound, the “IL-13: Mean % Cytokine Concentration in DNFB Treated Right Ears versus Vehicle 1-Dosed (S) Mice” value (from here on “IL-13: Mean % Cytokine Concentration”) ([1]; 25 mg/kg, regimen E) was 79%, the “IL-17A: Mean % Cytokine Concentration in DNFB Treated Right Ears versus Vehicle 1-Dosed (S) Mice” value (shortened to “IL-17A: Mean % Cytokine Concentration”) ([1]; 25 mg/kg, regimen E) was 53% and the “KC: Mean % Cytokine Concentration in DNFB Treated Right Ears versus Vehicle 1-Dosed (S) Mice” value (“KC: Mean % Cytokine Concentration” for short) ([1]; 25 mg/kg, regimen E) was 30%. The “MCP-1: Mean % Cytokine Concentration in DNFB Treated Right Ears versus Vehicle 1-Dosed (S) Mice” value (“MCP-1: Mean % Cytokine Concentration” below) ([1]; 25 mg/kg, regimen E) was 37%, the “MIP-1α: Mean % Cytokine Concentration in DNFB Treated Right Ears versus Vehicle 1-Dosed (S) Mice” value (from here on “MIP-1α: Mean % Cytokine Concentration”) ([1]; 25 mg/kg, regimen E) was 62% and the “MIP-1β: Mean % Cytokine Concentration in DNFB Treated Right Ears versus Vehicle 1-Dosed (S) Mice” value (“MIP-1β: Mean % Cytokine Concentration” below) ([1]; 25 mg/kg, regimen E) was 44%. For the same compound, the “RANTES: Mean % Cytokine Concentration in DNFB Treated Right Ears versus Vehicle 1-Dosed (S) Mice” value (shortened to “RANTES: Mean % Cytokine Concentration”) ([1]; 25 mg/kg, regimen E) was 55%, the “TNF-α: Mean % Cytokine Concentration in DNFB Treated Right Ears versus Vehicle 1-Dosed (S) Mice” value (“TNF-α: Mean % Cytokine Concentration” for short) ([1]; 25 mg/kg, regimen E) was 67% and the “G-CSF: Mean % Cytokine Concentration” value ([1]; 60 mg/kg, regimen E) was 36%. For the same compound, the “GM-CSF: Mean % Cytokine Concentration” value ([1]; 60 mg/kg, regimen E) was 0%, the “IFN-γ: Mean % Cytokine Concentration” value ([1]; 60 mg/kg, regimen E) was 25% and the “IL-1α: Mean % Cytokine Concentration” value ([1]; 60 mg/kg, regimen E) was 120%. The “IL-1β: Mean % Cytokine Concentration” value ([1]; 60 mg/kg, regimen E) was 32%, the “IL-3: Mean % Cytokine Concentration” value ([1]; 60 mg/kg, regimen E) was 53% and the “IL-5: Mean % Cytokine Concentration” value ([1]; 60 mg/kg, regimen E) was 23%. For the same compound, the “IL-6: Mean % Cytokine Concentration” value ([1]; 60 mg/kg, regimen E) was 31%, the “IL-12 (p40): Mean % Cytokine Concentration in DNFB Treated Right Ears versus Vehicle 1-Dosed (S) Mice” value ([1]; 60 mg/kg, regimen E) was 64% and the “IL-13: Mean % Cytokine Concentration” value ([1]; 60 mg/kg, regimen E) was 61%. The “IL-17A: Mean % Cytokine Concentration” value ([1]; 60 mg/kg, regimen E) was 42%, the “KC: Mean % Cytokine Concentration” value ([1]; 60 mg/kg, regimen E) was 21% and the “MCP-1: Mean % Cytokine Concentration” value ([1]; 60 mg/kg, regimen E) was 31%. For the same compound, the “MIP-1α: Mean % Cytokine Concentration” value ([1]; 60 mg/kg, regimen E) was 42%, the “MIP-1β: Mean % Cytokine Concentration” value ([1]; 60 mg/kg, regimen E) was 31% and the “RANTES: Mean % Cytokine Concentration” value ([1]; 60 mg/kg, regimen E) was 37%. For the same compound, the “TNF-α: Mean % Cytokine Concentration” value ([1]; 60 mg/kg, regimen E) was 48%, the “G-CSF: Mean % Cytokine Concentration” value ([1]; 60 mg/kg, regimen S) was 27% and the “GM-CSF: Mean % Cytokine Concentration” value ([1]; 60 mg/kg, regimen S) was 0%. The “IFN-γ: Mean % Cytokine Concentration” value ([1]; 60 mg/kg, regimen S) was 22%, the “IL-1α: Mean % Cytokine Concentration” value ([1]; 60 mg/kg, regimen S) was 88% and the “IL-1β: Mean % Cytokine Concentration” value ([1]; 60 mg/kg, regimen S) was 23%. For the same compound, the “IL-3: Mean % Cytokine Concentration” value ([1]; 60 mg/kg, regimen S) was 45%, the “IL-5: Mean % Cytokine Concentration” value ([1]; 60 mg/kg, regimen S) was 5% and the “IL-6: Mean % Cytokine Concentration” value ([1]; 60 mg/kg, regimen S) was 20%. For the same compound, the “IL-12 (p40): Mean % Cytokine Concentration in DNFB Treated Right Ears versus Vehicle 1-Dosed (S) Mice” value ([1]; 60 mg/kg, regimen S) was 49%, the “IL-13: Mean % Cytokine Concentration” value ([1]; 60 mg/kg, regimen S) was 47% and the “IL-17A: Mean % Cytokine Concentration” value ([1]; 60 mg/kg, regimen S) was 38%. For the same compound, the “KC: Mean % Cytokine Concentration” value ([1]; 60 mg/kg, regimen S) was 19%, the “MCP-1: Mean % Cytokine Concentration” value ([1]; 60 mg/kg, regimen S) was 27% and the “MIP-1α: Mean % Cytokine Concentration” value ([1]; 60 mg/kg, regimen S) was 29%. For the same compound, the “MIP-1β: Mean % Cytokine Concentration” value ([1]; 60 mg/kg, regimen S) was 24%, the “RANTES: Mean % Cytokine Concentration” value ([1]; 60 mg/kg, regimen S) was 27% and the “TNF-α: Mean % Cytokine Concentration” value ([1]; 60 mg/kg, regimen S) was 39%. It also gave a Kd (BRD2) of 55 nM.
